# Measurements taken from PubChem BioAssay AID504544 (Sanford-Burnham Center for Chemical Genomics, 2011).
# Calls of active or inactive are those of the source. The rule behind the calls is not given here.
# System: S. cerevisiae tim23-1 mutant growth, luminescence
# Experiment: tim23-1 yeast growth suppression potency – luminescence, uHTS hits, counter-screen for tim10-1 yeast inhibitor project, dose response (AID 504544)
row,SMILES,IC50
1,Cn1c(/C=C/c2ccc([N+](=O)[O-])o2)nc2ccccc2c1=O,6.28 µM
2,C=CC(=O)Oc1ccc(N2Cc3ccccc3C2=O)cc1,3.33 µM
3,COc1cc(OC)c(C(=O)O/N=C(\N)c2ccc(C)cc2)cc1OC,6.94 µM
4,Cc1ccc(F)c([C@H]2C3C=CCC(c4ccccc4)C3C(=O)N2Cc2ccccc2)c1 (some centres undefined),14.7 µM
5,CN(C)CCCN(C(=O)c1cc2cc([N+](=O)[O-])ccc2s1)c1nc2cc3c(cc2s1)OCCO3,13.5 µM
6,N=C(N)c1ccc(/C=C/c2ccc(C(=N)N)cc2O)cc1,6.44 µM
7,CC(C)(C)c1ccc(CN2N=Nc3ccccc3S2(=O)=O)cc1,5.66 µM
8,NC(=NCCCCCCN=C(N)/N=C(\N)Nc1ccc(Cl)cc1)/N=C(\N)Nc1ccc(Cl)cc1,> 100 µM (inactive)
9,Clc1ccccc1OCc1nnc(-c2ccccc2Br)o1,32.9 µM
10,COc1ccc(/C(N)=N/OC(=O)c2ccc3c(c2)OCO3)cc1,7.52 µM
11,Cc1ccc(/C(N)=N/OC(=O)c2ccc3c(c2)OCO3)cc1,15.5 µM
12,CCOC(=O)c1c(CSc2ccc(C)cc2)n(C)c2cc(Br)c(O)c(CN(C)C)c12,19.9 µM
13,CCN(CC)C1CC(=O)N(c2cccc(Cl)c2)C1=O (centres undefined),2.46 µM
14,NNc1nc(-c2ccccc2)c2cc(Br)ccc2n1,21.8 µM
15,Cc1cc(C)cc(N2C(=O)CC(Sc3nnnn3-c3ccccc3)C2=O)c1 (centres undefined),1.26 µM
16,Cc1cccc(NC(=S)N/N=C2/CCCCc3ccccc32)c1,7.44 µM
17,Cn1c(Cl)cnc1C1CC(=O)c2cc(Cl)ccc2O1 (centres undefined),4.44 µM
18,O=C1CC(Sc2nnnn2-c2ccccc2)C(=O)N1c1cccc(Cl)c1 (centres undefined),2.92 µM
19,CCCOc1ccc(CN(CCC#N)C(=S)NC(=O)c2ccccc2)cc1,22.7 µM
20,S=C(NCCCc1ccccc1)Nc1ccc(Cl)cc1,7.14 µM

row,SMILES,IC50
1,COc1ccc(/C=C/C(=O)c2ccccc2)cc1Cn1nnc2ccccc21,7.94 µM
2,O=c1c2ccccc2[se]n1-c1ccccc1,0.88 µM
3,CC(C)C(c1nnnn1C1CCCC1)N1CCCc2ccccc21 (centres undefined),13.7 µM
4,CC1=C/C(=N\OS(=O)(=O)c2ccccc2)C(C)=CC1=O,< 0.2 µM
5,CCSc1nc2ccccc2n1C(=O)/C=C\c1ccc(OC)c(OC)c1,11.8 µM
6,COc1cc(/C=C/c2ccc3cccc(O)c3n2)c(Br)cc1O,18.2 µM
7,Cc1cc([N+](=O)[O-])ccc1-c1ccc(C2Nc3ccccc3C(=O)N2O)o1 (centres undefined),18.1 µM
8,O=C(OCn1ncc(Br)c(Br)c1=O)c1ccc(F)cc1,1.78 µM
9,CCCOc1ccc(N2C(=O)CC(N3CCC(O)(c4cccc(C(F)(F)F)c4)CC3)C2=O)cc1 (centres undefined),7.41 µM
10,c1ccc(Nc2cccc(Nc3ccccc3)c2)cc1,11 µM
11,CCCCc1ccc(NC(=S)Nc2ccc(Nc3ccc(OC)cc3)cc2)cc1,30.1 µM
12,Fc1ccccc1CNC(=S)Nc1cccc(C(F)(F)F)c1,11.8 µM
13,Cc1ccc(F)c([C@H]2[C@@H]3C=CCC[C@@]3(C)C(=O)N2Cc2ccccc2)c1,18.4 µM
14,CNC(=O)c1nnsc1S(=O)(=O)c1ccc(Cl)cc1,11.5 µM
15,Cn1c(NCCCO)nc2c(c1=O)C1(CCCCC1)Cc1ccccc1-2,8.71 µM
16,O=[N+]([O-])c1ccccc1N/N=C/c1c[nH]c2ccccc12,15.7 µM
17,CC(=O)N1CCN(c2cc(N3CCc4ccccc4C3)c(F)cc2[N+](=O)[O-])CC1,34.7 µM
18,CCOc1ccc(-n2cc(-c3ccccc3)c3c(=O)[nH]cnc32)cc1,13.8 µM
19,CCCOc1ccccc1NC(=O)/C=C/C(N)=O,2.34 µM
20,COc1ccc(/C(C)=N/NC(=S)NCCc2ccccc2)cc1,19.5 µM

row,SMILES,IC50
1,Cc1ccc(/C(N)=N/OC(=O)C(C)c2ccc([N+](=O)[O-])cc2)cc1 (centres undefined),41.9 µM
2,O=C(NNC(=S)Nc1cccc(C(F)(F)F)c1)c1ccc(Cl)cc1Cl,7.04 µM
3,CCOC(=O)/C=C/C(=O)OCC(=O)Nc1ccc([N+](=O)[O-])cc1,7.49 µM
4,Cc1ccc(NC(=S)/N=C(\N)Nc2nc(C)c3cc(C)ccc3n2)c(C)c1,17 µM
5,Cc1ccc(NC2=C/C(=N\S(=O)(=O)c3cccs3)c3ccccc3C2=O)c(C)c1,11.9 µM
6,CC1=C/C(=N\OS(=O)(=O)c2ccccc2)C=CC1=O,0.27 µM
7,O=C(NC(=S)Nc1ccccc1N1CCCC1)c1ccc([N+](=O)[O-])cc1,19.3 µM
8,O=C1C2C3C=CC(CO)(O3)C2C(=O)N1c1ccccc1-c1ccccc1 (centres undefined),1.83 µM
9,COc1ccc(C(=O)Nc2ccc(-n3nncc3C(C)(C)C)cc2)cc1,8.87 µM
10,O=C(NNC(=S)Nc1cccc(C(F)(F)F)c1)c1cccc(Cl)c1,25.5 µM
11,COc1ccc(-c2nncnn2)cc1,3.86 µM
12,N/C(=N\OC(=O)CCC1CCCC1)c1ccccc1,29.6 µM
13,COc1ccc(Cl)cc1NC(=S)NCCc1ccc(F)cc1,12.5 µM
14,CC(C)C(=O)N1CCN(c2ccccc2NC(=O)c2ccc([N+](=O)[O-])o2)CC1,8.89 µM
15,COc1ccccc1N1C(=O)CC(Sc2n[nH]c(-c3cccc(C)c3)n2)C1=O (centres undefined),7.77 µM
16,O=C(N/N=C/c1ccc[nH]1)c1cc(-c2ccc(Cl)cc2)nc2ccccc12,8.98 µM
17,CN(CCCC(=O)O)c1ccc(N=Nc2ccc([N+](=O)[O-])cc2)cc1,11.6 µM
18,N/C(=N\OC(=O)CCC1CCCC1)c1cccc([N+](=O)[O-])c1,10.8 µM
19,Cc1nonc1C1CCCN1C(=O)c1cc(COc2cccc(C(F)(F)F)c2)on1 (centres undefined),19.2 µM
